The values that follow come from paper PMC12655819 (Pharmaceuticals, 2025).

Where two headings read alike, the source gives them in different places. Marks after values point to notes of the source that are not given here.

This data set is described as follows: Pharmacokinetics from dried saliva collected with Mitra VAMS (vsMPA, vsMPAG). It counts as in vivo, human. The note with it: for Cmax: dried saliva (Mitra VAMS 20 µL), 0–4 h post-dose; for AUC(0–4) Normalized to Drug Dose: normalized to MMF dose. As to the method:
The AUC0–4, Tmax, and Cmax parameters were calculated using the R (version 4.5.1) package software (R Core Team, 2025), supported by RStudio (version 2025.05.1+513) from Posit PBC software (Boston, MA, USA). […] The vMPA and vMPAG capillary blood levels were corrected using formulas validated in our department (partially published by Kocur et al.) and expressed as estimated capillary plasma concentrations. […] Individual PK profiles for each patient included in the study are provided in the Supplementary File (Figures S4 and S5).
Samples were sonicated (36 °C, 30 min), vortexed (15 min), and frozen (−20 °C, 15 min). After centrifugation (10 min, 25,155× g), 350 µL of supernatant was transferred to a total recovery borosilicate vial (Finneran, Vineland, NJ, USA) and evaporated to dryness under a stream of nitrogen (40 °C) using Ultravap® Levante (Porvair, Hampshire, Great Britain). The residue was reconstituted in 150 µL of mobile phase A, filtered in a Verex™ vial, and 5 µL was injected into the LC–MS/MS system. Analyses were performed at the Department of Drug Chemistry, Pharmaceutical and Biomedical Analysis, Medical University of Warsaw, Poland.
Additionally, the unstimulated saliva samples were simultaneously collected using the Salivette® device (Sarstedt, Nümbrecht, Germany) and Mitra™ 20 µL microsampling tips (Neoteryx/Trajan, Torrance, CA, USA (all saliva samples simultaneously to plasma and capillary blood sampling: 0, 0.5, 1, 2, and 4 h after drug administration). Patients had not eaten for at least 30 min before saliva collection, and their mouths were rinsed with water. The study was conducted in accordance with the Declaration of Helsinki and the International Council for Harmonization Guideline for Good Clinical Practice. The protocol was approved by the Bioethics Committee of the Children’s Memorial Health Institute, Warsaw, Poland (approval No. 15/KBE/2023, with subsequent amendments). Written informed consent was obtained from all participants and their legal guardians.

Where [1] appears, read: dried saliva (Mitra VAMS), n = 20, mean (range).
Setting [2] is: dried saliva (Mitra VAMS), pediatric renal transplant recipients (n = 20) on MMF, mean (range).

In the case of `COc1c(C)c2c(c(O[C@@H]3O[C@H](C(=O)O)[C@@H](O)[C@H](O)[C@H]3O)c1C/C=C(\C)CCC(=O)O)C(=O)OC2` [MPAG, mycophenolic acid glucuronide], the Cmax (pediatric renal transplant recipients (n = 20) on MMF, mean (range)) is listed as 70.30 (19.04–146.54) µg/L. Besides, the C0 concentration (dried saliva (Mitra VAMS), 0 h (pre-dose), n = 20, mean ± SD) came to 17.834 ± 12.122 ng/mL. The same compound gave a C0.5 concentration (dried saliva (Mitra VAMS), 0.5 h post-dose, n = 20, mean ± SD) of 37.704 ± 24.598 ng/mL. The compound also registered a C1 concentration (dried saliva (Mitra VAMS), 1 h post-dose, n = 20, mean ± SD) of 67.422 ± 44.462 µg/L. The C2 concentration (dried saliva (Mitra VAMS), 2 h post-dose, n = 20, mean ± SD) amounted to 39.258 ± 25.317 µg/L. The C4 concentration (dried saliva (Mitra VAMS), 4 h post-dose, n = 20, mean ± SD) stood at 19.762 ± 13.638 µg/L. Also, the “AUC(0–4) Normalized to Drug Dose” value under setting [1] is listed as 335.45 (115.15–902.00) ^c µg × h/mL × g. Under setting [2], the AUC(0–4) is 145 ng·h/mL and the Tmax is 1.03 (0.50–2.00) h.

Regarding `COc1c(C)c2c(c(O)c1C/C=C(\C)CCC(=O)O)C(=O)OC2` [MPA, Mycophenolic acid], the “AUC(0–4) Normalized to Drug Dose” value under setting [1] was 305.78 (33.88–2937.03) ^c µg × h/mL × g. Also, where the note is “human, pediatric renal transplant recipients (n = 20) on MMF, mean (range), read-out: Cmax”, the Cmax was determined as 84.1 ng/mL. Also, under “human, dried saliva (Mitra VAMS), 0 h (pre-dose), n = 20, mean ± SD, read-out: C0 concentration”, the concentration at 0 h was determined as 7.54 ± 4.89 ng/mL. Further, for the setting “human, dried saliva (Mitra VAMS), 0.5 h post-dose, n = 20, mean ± SD, read-out: C0.5 concentration”, the concentration at 0.5 h is 27.7 ± 9.14 ng/mL. Besides, the concentration at 1 h (human, dried saliva (Mitra VAMS), 1 h post-dose, n = 20, mean ± SD, read-out: C1 concentration) turned out to be 52.2 ± 40.9 ng/mL. The concentration at 2 h (human, dried saliva (Mitra VAMS), 2 h post-dose, n = 20, mean ± SD, read-out: C2 concentration) is 17.1 ± 16.7 ng/mL. Further, the concentration at 4 h (human, dried saliva (Mitra VAMS), 4 h post-dose, n = 20, mean ± SD, read-out: C4 concentration) is 7.25 ± 8.03 ng/mL. The Tmax (human, dried saliva (Mitra VAMS), pediatric renal transplant recipients (n = 20) on MMF, mean (range), read-out: Tmax) came to 51 min.
